Where two headings read alike, the source gives them in different places. Where only a bound is given, the exact number is not on record here.

One may read the Kd as the equilibrium constant for the complex coming apart.

The conditions of series [1]: rcm bond, 12-membered ring.
The conditions of series [2]: rcm bond, toluene.
Another series has as its target T1, ShhN protein (Homo sapiens, UniProt Q15465).
T1 construct: auto-cleavage of full length Shh into an active 20 kD N-terminal fragment (ShhN); purchased R&D Systems
As to the kind of experiment: Surface Plasmon Resonance (SPR) protein binding assay on immobilized ShhN. As to conditions: SPR, Biacore T100, ShhN immobilized on CM4 chip, 25° C., compound 0.78 μM-25 μM; read-out: KD. The method in brief:
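Binding to immobilized ShhN measured on a Biacore T100 at 25°C. Signals referenced against underivatized control surfaces, with zero-concentration blank cycles included. Solvent correction applied.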

The subject of another series is Gli1. In words: Primary keratinocyte cell culture, reduction in Gli mRNA. Format: cell-based. Conditions: primary human keratinocytes. The procedure: To study the potency of the compounds of the invention in cells, select compounds of the invention were conducted with keratinocytes and the reduction in Gli mRNA was measured. Culturing of primary human keratinocytes was previously described (Nguyen, B. C., et al., Genes & Dev. 20:1028-1042 (2006)). The full thickness skin model, EpiDermFT System (MatTek, Ashland), consisted of normal, human-derived epidermal keratinocytes and normal, human-derived dermal fibroblasts which have been cultured to form a multilayered, highly differentiated model of the human dermis and epidermis. […] Gene expression is compared by quantifying mRNA levels by real time RT-PCR. For this, total RNA preparations […] are used in a reverse transcriptase reaction with a mix of oligonucleotide dT and random hexamer primers, followed by real time PCR with gene-specific primers (Gli1: Qiagen Quantitect PrimerAssay QT00060501; Gli2: Qiagen Quantitect PrimerAssay QT00018648), using an […] real time detection system (Bio-Rad) according to the manufacturer's recommendation, with SYBR Green (Bio-Rad) for detection.

In the next series the test system is C3H10T1/2. As to the kind of experiment: Induction of osteogenic differentiation (modulation of osteoblast differentiation). Conditions: Mus musculus, C3H 10T1/2, read-out: IC50 (nM) C3H10T1/2.

T1 sequence (Q15465 24-197 limits assumed, species assumed): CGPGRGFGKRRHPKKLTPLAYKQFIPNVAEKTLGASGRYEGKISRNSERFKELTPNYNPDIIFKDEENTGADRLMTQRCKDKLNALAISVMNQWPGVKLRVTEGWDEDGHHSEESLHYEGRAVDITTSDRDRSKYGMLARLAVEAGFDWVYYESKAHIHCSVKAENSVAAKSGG
Description for C3H10T1/2: Using assays previously described in Dwyer et al., J. Biol. Chem. 282, (2007), 8959-68 and Nakamura et al., Biochm. […] Res. Comm., 237 (1997) 465-9, select compounds of the invention were screened for their ability to modulate osteoblast differentiation.

In turn, `C[C@H]1C/C=C/CCCN[C@H](c2ccccc2)COC1=O` displayed a ring closure, isolated yield in series [1] (from C=CCCCN[C@@H](COC(=O)C(C)CC=C)c1ccccc1, general RCM procedure (catalyst not printed here), toluene, 3 steps) of 41%. The compound further showed a ring closure, yield of all isomers in series [2] (from C=CCCCN[C@@H](COC(=O)[C@@H](C)CC=C)c1ccccc1, 3 steps) of 41%.

`CCO[Si](OCC)(OCC)C1=CCC(C)(C)C(=O)OC[C@@H](c2ccccc2)NC(=O)CC1` showed a ring closure, isolated yield in series [1] (from C=CCC(C)(C)C(=O)OC[C@H](NC(=O)CCC(=C)[Si](OCC)(OCC)OCC)c1ccccc1, general RCM procedure (catalyst not printed here), toluene) of 6%. The compound also had a ring closure, yield of all isomers in series [2] (from C=CCC(C)(C)C(=O)OC[C@H](NC(=O)CCC(=C)[Si](OCC)(OCC)OCC)c1ccccc1) of 6%.

As for `O=C(C[C@@H]1C/C=C/CCC(=O)O[C@H](c2ccccc2)CNC1=O)N[C@@H]1CCCc2ccccc21` [Example CR, 2-((2R,6S,E)-5,12-dioxo-2-phenyl-1-oxa-4-azacyclododec-8-en-6-yl)-N—((R)-1,2,3,4-tetrahydronaphthalen-1-yl)acetamide], the Kd at ShhN protein is < 0.1 µM. The IC50 in the series with Gli1 was < 0.1 µM; with C3H10T1/2, < 100 nM.

Turning to `CC(C)(C)OC(=O)N[C@@H]1C/C=C/CCC(=O)N[C@H](c2ccc(F)cc2)COC1=O`, the ring closure, isolated yield in series [1] (from C=CCCC(=O)N[C@@H](COC(=O)[C@@H](CC=C)NC(=O)OC(C)(C)C)c1ccc(F)cc1, Grubbs II (10 mol%), DCM, 9.9 mM) amounted to 85%.

As to `O=C1CC/C=C/C[C@@H](CC(=O)N2CCOCC2)C(=O)NC[C@@H](c2ccccc2)O1` [Example DK, (2R,6S,E)-6-(2-morpholino-2-oxoethyl)-2-phenyl-1-oxa-4-azacyclododec-8-ene-5,12-dione], the Kd on ShhN protein is < 0.1 µM. Further, the values for the IC50 in the series on Gli1 and with C3H10T1/2 were 0.1 to 1 µM and 1000 to 100000 nM, respectively.

In the case of `O=C(C[C@@H]1C/C=C/CCC(=O)O[C@H](c2ccccc2)CNC1=O)NCCCC(F)(F)F` [Example CT, 2-((2R,6S,E)-5,12-dioxo-2-phenyl-1-oxa-4-azacyclododec-8-en-6-yl)-N-(4,4,4-trifluorobutyl)acetamide], the Kd at ShhN protein was < 0.1 µM. For the same compound, the results for the IC50 in the series with Gli1 and with C3H10T1/2 were < 0.1 µM and < 100 nM, respectively.

In series [2] (from C=CCCC(=O)N[C@@H](COC(=O)[C@H](C)CC=C)c1ccccc1, Grubbs II, 20.0 mM, 25.0 °C, 12.0 h), `C[C@@H]1C/C=C/CCC(=O)N[C@H](c2ccccc2)COC1=O` [Example C, (3R,11R,E)-11-methyl-3-phenyl-1-oxa-4-azacyclododec-8-ene-5,12-dione] gave a ring closure, yield of all isomers of 37%. Also, the Kd on ShhN protein is < 0.1 µM. For the same compound, the IC50 is < 0.1 µM in the series on Gli1 and 100 to 1000 nM in the series on C3H10T1/2.

Regarding `C[C@H]1[C@@H](c2ccccc2)OC(=O)CC/C=C/C[C@@H](CC(=O)NCc2ccc(Cl)cc2)C(=O)N1C` [Example CZ, N-(4-chlorobenzyl)-2-((2R,3S,6S,E)-3,4-dimethyl-5,12-dioxo-2-phenyl-1-oxa-4-azacyclododec-8-en-6-yl)acetamide], on ShhN protein, the Kd was < 0.1 µM. Moreover, the IC50 lay in the range of 0.1 to 1 µM with Gli1 and 100 to 1000 nM with C3H10T1/2.

`CC(=O)N[C@H]1C/C=C/C[C@@H](CC(=O)NCc2ccc(Cl)cc2)C(=O)NC[C@@H](c2ccccc2)OC1=O` [Example DJ, 2-((2R,6S,11S,E)-11-acetamido-5,12-dioxo-2-phenyl-1-oxa-4-azacyclododec-8-en-6-yl)-N-(4-chlorobenzyl)acetamide]: at ShhN protein, the Kd is < 0.1 µM. For the same compound, the figures for the IC50 in the series with Gli1 and in the series on C3H10T1/2 were > 100 µM and 100 to 1000 nM, respectively.

As to `O=C(C[C@@H]1C/C=C/CCC(=O)N[C@@H](c2ccccc2)COC1=O)NCc1ccc(Cl)cc1` [Example DA, N-(4-chlorobenzyl)-2-((3S,11S,E)-5,12-dioxo-3-phenyl-1-oxa-4-azacyclododec-8-en-11-yl)acetamide], the Kd on ShhN protein is < 0.1 µM. Also, the IC50 in the series with Gli1 was < 0.1 µM; in the series on C3H10T1/2, 100 to 1000 nM.

In the case of `O=C(C[C@@H]1C[C@H](O)[C@@H](O)CCC(=O)N[C@H](c2ccccc2)COC1=O)NCc1ccc(Cl)cc1` [Example E, N-(4-chlorobenzyl)-2-((3R,8S,9S,11S)-8,9-dihydroxy-5,12-dioxo-3-phenyl-1-oxa-4-azacyclododecan-11-yl)acetamide], the Kd on ShhN protein is < 0.1 µM. Further, the IC50 in the series on Gli1 was < 0.1 µM; with C3H10T1/2 it was 1000 to 100000 nM.

With `N[C@@H]1C/C=C/C[C@@H](CC(=O)NCc2ccc(Cl)cc2)C(=O)NC[C@@H](c2ccccc2)OC1=O` [Example CV, 2-((2R,6S,11R,E)-11-amino-5,12-dioxo-2-phenyl-1-oxa-4-azacyclododec-8-en-6-yl)-N-(4-chlorobenzyl)acetamide], at ShhN protein, the Kd was < 0.1 µM. Moreover, the IC50 in the series on Gli1 was < 0.1 µM; in the series with C3H10T1/2, 100 to 1000 nM.

In the case of `C[C@@H]1C/C=C/CCNC(=O)[C@H](c2ccccc2)COC1=O`, the ring closure, isolated yield in series [1] (from C=CCCNC(=O)[C@@H](COC(=O)[C@H](C)CC=C)c1ccccc1, Grubbs II (10 mol%), toluene, 10.0 mM, 2 steps) amounted to 63%.

In the case of `C[C@@H]1C/C=C/CCC(=O)N[C@H](c2ccccc2)CC(=O)O1`, the ring closure, isolated yield in series [1] (from C=CCCC(=O)N[C@H](CC(=O)O[C@@H](C)CC=C)c1ccccc1, Grubbs II (10 mol%), toluene, 10.0 mM) came to 79%.

Regarding `O=C1CC/C=C/CCC(=O)O[C@H](c2ccccc2)CN1` [Example CB, (R,E)-2-phenyl-1-oxa-4-azacyclododec-8-ene-5,12-dione], the Kd at ShhN protein was > 100 µM. Also, the IC50 in the series with Gli1 was 0.1 to 1 µM.

For `CCCCN1CCC(CNC(=O)C[C@@H]2C/C=C/CCC(=O)O[C@H](c3ccccc3)CNC2=O)CC1` [EI], the Kd on ShhN protein is > 100 µM. In the series with Gli1, this compound displayed an IC50 of 1 to 100 µM.

Regarding `O=C1CC/C=C/C[C@@H](CC(=O)N2CCCCC2)C(=O)NC[C@@H](c2ccccc2)O1` [Example CQ, (2R,6S,E)-6-(2-oxo-2-(piperidin-1-yl)ethyl)-2-phenyl-1-oxa-4-azacyclododec-8-ene-5,12-dione], the Kd on ShhN protein lay within 0.1 to 1 µM. Moreover, the IC50 in the series on Gli1 was < 0.1 µM; with C3H10T1/2 it was < 100 nM.

As for `CC(=O)N[C@H]1C/C=C/C[C@@H](CC(=O)NCc2ccc(Cl)cc2)C(=O)N(C)[C@@H](C)[C@@H](c2ccccc2)OC1=O` [Example DM, 2-((2R,3S,6S,11S,E)-11-acetamido-3,4-dimethyl-5,12-dioxo-2-phenyl-1-oxa-4-azacyclododec-8-en-6-yl)-N-(4-chlorobenzyl)acetamide], the Kd at ShhN protein is < 0.1 µM. Besides, the values for the IC50 in the series on Gli1 and with C3H10T1/2 were 0.1 to 1 µM and 1000 to 100000 nM, respectively.

Take `O=C(C[C@@H]1C/C=C/CCC(=O)O[C@H](c2ccccc2)CNC1=O)NC1CCCc2ccccc21` (stereo partly drawn) [ER]: on ShhN protein, the Kd lay within 1 to 100 µM. The compound further showed an IC50 with Gli1 of 0.1 to 1 µM.

As to `O=C(C[C@@H]1C[C@@H]2O[C@H]2CCC(=O)N[C@H](c2ccccc2)COC1=O)NCc1ccc(Cl)cc1` [Example CD, N-(4-chlorobenzyl)-2-((1S,3S,7R,12S)-4,9-dioxo-7-phenyl-5,13-dioxa-8-azabicyclo[10.1.0]tridecan-3-yl)acetamide], at ShhN protein, the Kd was in the range of 1 to 100 µM. The compound further had an IC50 in the series on Gli1 of 1 to 100 µM.

Turning to `CC1(C)O[C@H]2CCC(=O)O[C@H](c3ccccc3)CNC(=O)[C@H](CC(=O)NCc3ccc(Cl)cc3)C[C@@H]2O1` [Example I, N-(4-chlorobenzyl)-2-((3aS,8R,12S,13aS)-2,2-dimethyl-6,11-dioxo-8-phenyldecahydro-3aH-[1,3]dioxolo[4,5-h][1,4]oxaazacyclododecin-12-yl)acetamide], the Kd at ShhN protein is < 0.1 µM. Moreover, the IC50 in the series on Gli1 is < 0.1 µM; in the series on C3H10T1/2, 1000 to 100000 nM.

Regarding `CN1CCC(CNC(=O)C[C@@H]2C/C=C/CCC(=O)O[C@H](c3ccccc3)CNC2=O)CC1` [Example DN, 2-((2R,6S,E)-5,12-dioxo-2-phenyl-1-oxa-4-azacyclododec-8-en-6-yl)-N-((1-methylpiperidin-4-yl)methyl)acetamide], on ShhN protein, the Kd is < 0.1 µM. The values for the IC50 in the series with Gli1 and with C3H10T1/2 were 0.1 to 1 µM and 1000 to 100000 nM, respectively.

As to `CC(C)(C)OC(=O)C[C@@H]1C/C=C/CCC(=O)O[C@H](c2ccccc2)CNC1=O`, the ring closure, isolated yield in series [1] (from C=CCCC(=O)O[C@@H](CNC(=O)[C@@H](CC=C)CC(=O)OC(C)(C)C)c1ccccc1, Grubbs II (10 mol%), toluene, 10.0 mM, 65.0 °C, 7.0 h) amounted to 73%. Moreover, in series [2] (from C=CCCC(=O)O[C@@H](CNC(=O)[C@@H](CC=C)CC(=O)OC(C)(C)C)c1ccccc1, Grubbs 2nd Generation catalyst, 10.0 mM, 65.0 °C, 7.0 h), the ring closure, yield of all isomers is 73%.

The values above are taken from patent US20140094462A1, “SONIC HEDGEHOG MODULATORS” (priority 2009, published 2014).
